According to ChEMBL document CHEMBL1129710, “Glycomimetic selectin inhibitors: (-D-mannopyranosyloxy)methylbiphenyls” (Bioorg Med Chem Lett, 1996):
Active and inactive are the calls of the source. The calls are words filed in the database; no cut-off is given here.

Key:
[1] = system: HL-60; assay: Compound was tested for its ability to inhibit sialyl Lewis X (sLex, IC50 = 2 mM) dependent binding of HL-60 cells to P-selectin fusion protein; format: functional
[2] = system: HL-60; assay: Compound was tested for its ability to inhibit sialyl Lewis X (sLex, IC50 = 2 mM) dependent binding of HL-60 cells to P-selectin fusion protein; Not assayed; format: functional, cell-based
[3] = system: HL-60; assay: Compound was tested for its ability to inhibit sialyl Lewis X dependent binding of HL-60 cells to P-selectin fusion protein; format: functional, cell-based; conditions: Homo sapiens
[4] = molecular target: T1, E-selectin (Mus musculus, UniProt Q00690); assay: Compound was tested for its ability to inhibit sialyl Lewis X dependent binding of HL-60 cells to Selectin E fusion protein
T1 sequence (Q00690 whole entry): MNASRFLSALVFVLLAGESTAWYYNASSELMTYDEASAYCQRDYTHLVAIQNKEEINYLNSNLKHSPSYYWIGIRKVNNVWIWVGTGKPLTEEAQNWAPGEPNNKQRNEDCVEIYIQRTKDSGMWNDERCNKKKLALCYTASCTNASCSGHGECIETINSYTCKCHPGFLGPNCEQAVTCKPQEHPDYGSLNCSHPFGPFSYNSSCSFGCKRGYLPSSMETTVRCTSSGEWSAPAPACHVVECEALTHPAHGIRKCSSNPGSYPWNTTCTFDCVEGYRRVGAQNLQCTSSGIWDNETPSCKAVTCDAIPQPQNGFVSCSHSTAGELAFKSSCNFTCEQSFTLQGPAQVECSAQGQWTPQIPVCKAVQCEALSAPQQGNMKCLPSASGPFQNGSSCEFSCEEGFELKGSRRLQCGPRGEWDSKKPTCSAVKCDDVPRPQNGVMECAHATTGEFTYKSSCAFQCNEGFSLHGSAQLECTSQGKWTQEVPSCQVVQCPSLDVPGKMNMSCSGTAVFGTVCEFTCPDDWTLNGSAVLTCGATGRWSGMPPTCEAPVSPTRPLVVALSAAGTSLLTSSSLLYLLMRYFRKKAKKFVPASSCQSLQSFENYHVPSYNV

| Structure (SMILES) | Ratio [1] | further results |
| --- | --- | --- |
| Cc1cc(-c2cccc(CO[C@H]3O[C@H](CO)[C@@H](O)[C@@H](O)[C@@H]3O)c2)cc(C)c1OCC(=O)O | 0.5 |  |
| O=C(O)COc1ccc(-c2cccc(CO[C@H]3O[C@H](CO)[C@@H](O)[C@@H](O)[C@@H]3O)c2)cc1 | 1.2 |  |
| O=C(O)c1cccc(-c2cccc(CO[C@H]3O[C@H](CO)[C@@H](O)[C@@H](O)[C@@H]3O)c2)c1 | 2.5 |  |
| O=C(O)COc1cccc(-c2cccc(CO[C@H]3O[C@H](CO)[C@@H](O)[C@@H](O)[C@@H]3O)c2)c1 | 4.8 |  |
| O=C(O)Cc1cccc(-c2ccc(CO[C@H]3O[C@H](CO)[C@@H](O)[C@@H](O)[C@@H]3O)cc2)c1 | >>2.3 |  |
| O=C(O)Cc1cccc(-c2ccccc2CO[C@H]2O[C@H](CO)[C@@H](O)[C@@H](O)[C@@H]2O)c1 |  | Ratio [2]: inactive |
| CC(=O)N[C@H]1[C@H]([C@H](O)[C@H](O)CO)O[C@@](O[C@H]2[C@@H](O)[C@@H](CO)O[C@@H](O[C@@H]([C@H](O[C@@H]3O[C@@H](C)[C@@H](O)[C@@H](O)[C@@H]3O)[C@H](C=O)NC(C)=O)[C@H](O)CO)[C@@H]2O)(C(=O)O)C[C@@H]1O [SIALYL LEWIS X] |  | IC50 [3]: 2000 µM; IC50 [4]: 3000 µM |
| O=C(O)Cc1cccc(-c2cccc(CO[C@H]3O[C@H](CO)[C@@H](O)[C@@H](O)[C@@H]3O)c2)c1 | 1.2 |  |
| O=C(O)Cc1ccc(-c2cccc(CO[C@H]3O[C@H](CO)[C@@H](O)[C@@H](O)[C@@H]3O)c2)cc1 | >20 |  |
| O=C(O)CCC(=O)c1ccc(-c2cccc(CO[C@H]3O[C@H](CO)[C@@H](O)[C@@H](O)[C@@H]3O)c2)cc1 | >>10 |  |
